Assay results reported in patent US7893092B2, “Anthranilamide derivatives as insecticides” (Syngenta Crop Protection, Inc., priority 2004, dated 2011).

system: Diabrotica balteata; assay: Activity against Diabrotica balteata (Example B2); assay type: in vivo; conditions: 144 h, maize seedlings sprayed, 400 ppm active ingredient, 2nd instar larvae, 6 days, read-out: percentage reduction in the population (% activity)
Protocol: Maize seedlings are sprayed with an aqueous emulsion spray mixture comprising 400 ppm of active ingredient and, after the spray coating has dried on, populated with 10 larvae (2nd instar) of Diabrotica balteata and introduced into a plastic container. 6 days later, the percentage reduction in the population (% activity) is determined by comparing the number of dead larvae between the treated and untreated plants.

With `Cc1cc(Cl)cc(C(=O)NC(C)(C)CS(C)(=N)=O)c1NC(=O)c1cc(C(F)(F)F)nn1-c1ncccc1Cl` (stereo not drawn) [T1.1.1] as the compound, how does the inhibition at 400 ppm read?
The inhibition at 400 ppm was over 80%.

With `Cc1cc(Cl)cc(C(=O)NC(C)(C)CS(C)(=N)=O)c1NC(=O)c1cc(OCC(F)(F)F)nn1-c1ncccc1Cl` (stereo not drawn) [T1.1.17] as the compound, how does the inhibition at 400 ppm read?
Its inhibition at 400 ppm is over 80%.

With `Cc1cc(C#N)cc(C(=O)NC(C)(C)CS(C)(=N)=O)c1NC(=O)c1cc(C(F)(F)F)nn1-c1ncccc1Cl` (stereo not drawn) [T1.1.73] as the compound, how does the inhibition at 400 ppm read?
The inhibition at 400 ppm was over 80%.

With `Cc1cc(C#N)cc(C(=O)NC(C)(C)CS(C)(=N)=O)c1NC(=O)c1cc(OCC(F)(F)F)nn1-c1ncccc1Cl` (stereo not drawn) [T1.1.89] as the compound, how does the inhibition at 400 ppm read?
Its inhibition at 400 ppm is over 80%.

With `Cc1cc(Cl)cc(C(=O)NC(C)(C)CS(C)(=O)=NC(=O)C(F)(F)F)c1NC(=O)c1cc(C(F)(F)F)nn1-c1ncccc1Cl` (stereo not drawn) [T3.1.1] as the compound, how does the inhibition at 400 ppm read?
The inhibition at 400 ppm was over 80%.

Which inhibition at 400 ppm does the source give for `Cc1cc(Cl)cc(C(=O)NC(C)CS(C)(=N)=O)c1NC(=O)c1cc(C(F)(F)F)nn1-c1ncccc1Cl` (stereo not drawn) [T16.1.1] here?
The inhibition at 400 ppm was over 80%.

With `Cc1cc(Cl)cc(C(=O)NC(C)CS(C)(=O)=NC(=O)C(F)(F)F)c1NC(=O)c1cc(C(F)(F)F)nn1-c1ncccc1Cl` (stereo not drawn) [T18.1.1] as the compound, how does the inhibition at 400 ppm read?
The inhibition at 400 ppm was over 80%.

system: Heliothis virescens; assay: Activity against Heliothis virescens, foliar application (Example B3); assay type: in vivo; conditions: 144 h, young soya plants sprayed, 400 ppm active ingredient, 1st instar caterpillars, 6 days, read-out: percentage reduction in the population and in the feeding damage (% activity)
Protocol: (§1) Young soya plants are sprayed with an aqueous emulsion spray mixture comprising 400 ppm of active ingredient and, after the spray coating has dried on, populated with 10 caterpillars (1st instar) of Heliothis virescens and introduced into a plastic container. 6 days later, the percentage reduction in the population and in the feeding damage (% activity) are determined by comparing the number of dead caterpillars and the feeding damage between the treated and untreated plants.

Which inhibition at 400 ppm does the source give for `Cc1cc(Cl)cc(C(=O)NC(C)(C)CS(C)(=N)=O)c1NC(=O)c1cc(C(F)(F)F)nn1-c1ncccc1Cl` (stereo not drawn) [T1.1.1] here?
The inhibition at 400 ppm was over 80%.

With `Cc1cc(Cl)cc(C(=O)NC(C)(C)CS(C)(=O)=NC(=O)C(F)(F)F)c1NC(=O)c1cc(C(F)(F)F)nn1-c1ncccc1Cl` (stereo not drawn) [T3.1.1] as the compound, how does the inhibition at 400 ppm read?
The inhibition at 400 ppm was over 80%.

Which inhibition at 400 ppm does the source give for `Cc1cc(Cl)cc(C(=O)NC(C)CS(C)(=N)=O)c1NC(=O)c1cc(C(F)(F)F)nn1-c1ncccc1Cl` (stereo not drawn) [T16.1.1] here?
Its inhibition at 400 ppm is over 80%.

system: Myzus persicae; assay: Activity against Myzus persicae, foliar application (Example B5); assay type: in vivo; conditions: pea seedlings sprayed, 400 ppm active ingredient, 20°, 3 and 6 days, read-out: percentage reduction in the population (% activity)
Protocol: Pea seedlings are infected with Myzus persicae, subsequently sprayed with a spray mixture comprising 400 ppm of active ingredient and then incubated at 20°. 3 and 6 days later, the percentage reduction in the population (% activity) is determined by comparing the number of dead aphids between the treated and untreated plants.

Which inhibition at 400 ppm does the source give for `Cc1cc(Cl)cc(C(=O)NC(C)(C)CS(C)(=N)=O)c1NC(=O)c1cc(C(F)(F)F)nn1-c1ncccc1Cl` (stereo not drawn) [T1.1.1] here?
Its inhibition at 400 ppm is over 80%.

With `Cc1cc(Cl)cc(C(=O)NC(C)(C)CS(C)(=O)=NC(=O)C(F)(F)F)c1NC(=O)c1cc(C(F)(F)F)nn1-c1ncccc1Cl` (stereo not drawn) [T3.1.1] as the compound, how does the inhibition at 400 ppm read?
Its inhibition at 400 ppm is over 80%.

system: Plutella xylostella; assay: Activity against Plutella xylostella (Example B7); assay type: in vivo; conditions: 72 h, young cabbage plants sprayed, 400 ppm active ingredient, 3rd instar caterpillars, 3 days, read-out: percentage reduction in the population and in the feeding damage (% activity)
Protocol: as §1, with “cabbage” for “soya”, “(3rd” for “(1st”, “Plutella xylostella” for “Heliothis virescens”, “3” for “6”

For `Cc1cc(Cl)cc(C(=O)NC(C)(C)CS(C)(=N)=O)c1NC(=O)c1cc(C(F)(F)F)nn1-c1ncccc1Cl` (stereo not drawn) [T1.1.1], which inhibition at 400 ppm is on record?
The inhibition at 400 ppm was over 80%.

Which inhibition at 400 ppm does the source give for `Cc1cc(Cl)cc(C(=O)NC(C)(C)CS(C)(=N)=O)c1NC(=O)c1cc(OCC(F)(F)F)nn1-c1ncccc1Cl` (stereo not drawn) [T1.1.17] here?
Its inhibition at 400 ppm is over 80%.

For `Cc1cc(C#N)cc(C(=O)NC(C)(C)CS(C)(=N)=O)c1NC(=O)c1cc(C(F)(F)F)nn1-c1ncccc1Cl` (stereo not drawn) [T1.1.73], which inhibition at 400 ppm is on record?
The inhibition at 400 ppm was over 80%.

For `Cc1cc(C#N)cc(C(=O)NC(C)(C)CS(C)(=N)=O)c1NC(=O)c1cc(OCC(F)(F)F)nn1-c1ncccc1Cl` (stereo not drawn) [T1.1.89], which inhibition at 400 ppm is on record?
The inhibition at 400 ppm was over 80%.

With `Cc1cc(Cl)cc(C(=O)NC(C)(C)CS(C)(=O)=NC(=O)C(F)(F)F)c1NC(=O)c1cc(C(F)(F)F)nn1-c1ncccc1Cl` (stereo not drawn) [T3.1.1] as the compound, how does the inhibition at 400 ppm read?
The inhibition at 400 ppm was over 80%.

With `Cc1cc(Cl)cc(C(=O)NC(C)CS(C)(=N)=O)c1NC(=O)c1cc(C(F)(F)F)nn1-c1ncccc1Cl` (stereo not drawn) [T16.1.1] as the compound, how does the inhibition at 400 ppm read?
The inhibition at 400 ppm was over 80%.

Which inhibition at 400 ppm does the source give for `Cc1cc(Cl)cc(C(=O)NC(C)CS(C)(=O)=NC(=O)C(F)(F)F)c1NC(=O)c1cc(C(F)(F)F)nn1-c1ncccc1Cl` (stereo not drawn) [T18.1.1] here?
The inhibition at 400 ppm was over 80%.

system: Spodoptera littoralis; assay: Activity against Spodoptera littoralis (Example B8); assay type: in vivo; conditions: 72 h, young soya plants sprayed, 400 ppm active ingredient, 1st instar caterpillars, 3 days, read-out: percentage reduction in the population and in the feeding damage (% activity)
Protocol: as §1, with “Spodoptera littoralis” for “Heliothis virescens”, “3” for “6”

Which inhibition at 400 ppm does the source give for `Cc1cc(Cl)cc(C(=O)NC(C)(C)CS(C)(=N)=O)c1NC(=O)c1cc(C(F)(F)F)nn1-c1ncccc1Cl` (stereo not drawn) [T1.1.1] here?
The inhibition at 400 ppm was over 80%.

Which inhibition at 400 ppm does the source give for `Cc1cc(Cl)cc(C(=O)NC(C)(C)CS(C)(=N)=O)c1NC(=O)c1cc(OCC(F)(F)F)nn1-c1ncccc1Cl` (stereo not drawn) [T1.1.17] here?
Its inhibition at 400 ppm is over 80%.

For `Cc1cc(C#N)cc(C(=O)NC(C)(C)CS(C)(=N)=O)c1NC(=O)c1cc(C(F)(F)F)nn1-c1ncccc1Cl` (stereo not drawn) [T1.1.73], which inhibition at 400 ppm is on record?
Its inhibition at 400 ppm is over 80%.

Which inhibition at 400 ppm does the source give for `Cc1cc(C#N)cc(C(=O)NC(C)(C)CS(C)(=N)=O)c1NC(=O)c1cc(OCC(F)(F)F)nn1-c1ncccc1Cl` (stereo not drawn) [T1.1.89] here?
Its inhibition at 400 ppm is over 80%.

With `Cc1cc(Cl)cc(C(=O)NC(C)(C)CS(C)(=O)=NC(=O)C(F)(F)F)c1NC(=O)c1cc(C(F)(F)F)nn1-c1ncccc1Cl` (stereo not drawn) [T3.1.1] as the compound, how does the inhibition at 400 ppm read?
Its inhibition at 400 ppm is over 80%.

With `Cc1cc(Cl)cc(C(=O)NC(C)CS(C)(=N)=O)c1NC(=O)c1cc(C(F)(F)F)nn1-c1ncccc1Cl` (stereo not drawn) [T16.1.1] as the compound, how does the inhibition at 400 ppm read?
Its inhibition at 400 ppm is over 80%.

With `Cc1cc(Cl)cc(C(=O)NC(C)CS(C)(=O)=NC(=O)C(F)(F)F)c1NC(=O)c1cc(C(F)(F)F)nn1-c1ncccc1Cl` (stereo not drawn) [T18.1.1] as the compound, how does the inhibition at 400 ppm read?
Its inhibition at 400 ppm is over 80%.

system: Spodoptera littoralis; assay: Systemic insecticide test for Spodoptera littoralis (cotton leafworm) (Example B9); assay type: in vivo; conditions: in Zea mays, 96 h, read-out: percentage of dead (activity)
Protocol: Four day old maize seedlings (Zea mays, variety Stoneville) are placed individual in vials containing 24 ml water into which the chemical is diluted at 12.5 ppm. Seedlings are allowed to grow for six days. Subsequently leaves are cut and placed in a Petri dish (5 cm diameter), inoculated with twelve to fifteen 1st instar S. littoralis larvae and incubated for four days in a growth chamber (25° C., 50% r.h., 18:6 L:D photo period). Number of alive insects are counted and percentage of dead calculated. Tests were conducted with one replicate. In this test, compounds listed in the Tables above show good activity. In particular compounds T1.1.17, T1.1.89, T41.1.1, T35.1.1, T40.1.1, T30.1.1, T44.1.1, T31.1.1, T31.1.2, T30.1.2, T1.1.17, T1.1.89, T16.1.1, T36.1.1, T16.1.1, T3.7.1, T18.1.1, T43.1.1, T42.1.1, T30.1.2, T30.1.1, T40.1.1, T41.1.1, T45.1.1, T35.1.1, T1.1.73, T18.1.1, T36.1.1, T1.1.1 and T1.1.73 have an activity of over 80%.

For `Cc1cc(Cl)cc(C(=O)NC(C)(C)CS(C)(=N)=O)c1NC(=O)c1cc(C(F)(F)F)nn1-c1ncccc1Cl` (stereo not drawn) [T1.1.1], which pest or weed control at 12.5 ppm is on record?
The pest or weed control at 12.5 ppm was over 80%.

With `Cc1cc(Cl)cc(C(=O)NC(C)(C)CS(C)(=N)=O)c1NC(=O)c1cc(OCC(F)(F)F)nn1-c1ncccc1Cl` (stereo not drawn) [T1.1.17] as the compound, how does the pest or weed control at 12.5 ppm read?
Its pest or weed control at 12.5 ppm is over 80%.

For `Cc1cc(C#N)cc(C(=O)NC(C)(C)CS(C)(=N)=O)c1NC(=O)c1cc(C(F)(F)F)nn1-c1ncccc1Cl` (stereo not drawn) [T1.1.73], which pest or weed control at 12.5 ppm is on record?
Its pest or weed control at 12.5 ppm is over 80%.

With `Cc1cc(C#N)cc(C(=O)NC(C)(C)CS(C)(=N)=O)c1NC(=O)c1cc(OCC(F)(F)F)nn1-c1ncccc1Cl` (stereo not drawn) [T1.1.89] as the compound, how does the pest or weed control at 12.5 ppm read?
Its pest or weed control at 12.5 ppm is over 80%.

Which pest or weed control at 12.5 ppm does the source give for `Cc1cc(Cl)cc(C(=O)NC(C)CS(C)(=N)=O)c1NC(=O)c1cc(C(F)(F)F)nn1-c1ncccc1Cl` (stereo not drawn) [T16.1.1] here?
Its pest or weed control at 12.5 ppm is over 80%.

With `Cc1cc(Cl)cc(C(=O)NC(C)CS(C)(=O)=NC(=O)C(F)(F)F)c1NC(=O)c1cc(C(F)(F)F)nn1-c1ncccc1Cl` (stereo not drawn) [T18.1.1] as the compound, how does the pest or weed control at 12.5 ppm read?
Its pest or weed control at 12.5 ppm is over 80%.

system: not given; assay: not given; conditions: not given

Which melting point does the source give for `Cc1cc(Cl)cc(C(=O)NC(C)(C)CS(C)(=O)=NC(=O)C(F)(F)F)c1NC(=O)c1cc(C(F)(F)F)nn1-c1ncccc1Cl` (stereo not drawn) [T3.1.1] here?
Its melting point is 112 to 115 °C.
